From patent publication US20040076974A1, “Liver necrosis predictive genes” (priority 2002, published 2004)
“And” between values parts separate entries of the source, which are not always exact repeats. Identical values can stand only once. Like-named read-outs stand apart in the source and are kept apart here.

Test system: toxicologically relevant rat genes (rat CT array)

Brc1ccccc1 [bromobenzene]
Phase-1 RCT-192 expression (treatment/control) (24 h, dose 200, listed as BRB): 1.596
Phase-1 RCT-213 expression (treatment/control) (24 h, dose 200, listed as BRB): 1.467
Phase-1 RCT-214 expression (treatment/control) (24 h, dose 200, listed as BRB): 0.4191 and 0.7327 and 0.3835
Phase-1 RCT-239 expression (treatment/control) (24 h, dose 200, listed as BRB): 0.6828
Phase-1 RCT-258 expression (treatment/control) (24 h, dose 200, listed as BRB): 0.9631 and 1.542
Phase-1 RCT-271 expression (treatment/control) (24 h, dose 200, listed as BRB): 0.5825 and 0.5279
Phase-1 RCT-291 expression (treatment/control) (24 h, dose 200, listed as BRB): 1.199 and 0.6861
Phase-1 RCT-295 expression (treatment/control) (24 h, dose 200, listed as BRB): 2.141 and 1.945 and 1.916
Proliferating cell nuclear antigen gene expression (treatment/control) (24 h, dose 200, listed as BRB): 1.304 and 0.7642 and 1.223
Pyruvate kinase, muscle expression (treatment/control) (24 h, dose 200, listed as BRB): 1.814 and 1.17 and 1.778
Ref-1 expression (treatment/control) (24 h, dose 200, listed as BRB): 2.201 and 1.238 and 2.06
Ribosomal protein L13A expression (treatment/control) (24 h, dose 200, listed as BRB): 2.014 and 1.811 and 2.099
Ribosomal protein S8 expression (treatment/control) (24 h, dose 200, listed as BRB): 2.657 and 2.216 and 2.391
Ribosomal protein S9 expression (treatment/control) (24 h, dose 200, listed as BRB): 1.821 and 1.272 and 1.544
Ribosomal protein S17 expression (treatment/control) (24 h, dose 200, listed as BRB): 2.853 and 2.061 and 2.44
Superoxide dismutase Mn expression (treatment/control) (24 h, dose 200, listed as BRB): 2.675 and 1.611 and 3.075
T-cell cyclophilin expression (treatment/control) (24 h, dose 200, listed as BRB): 1.63 and 1.482 and 1.522
Thymosin beta-10 expression (treatment/control) (24 h, dose 200, listed as BRB): 1.331 and 1.367 and 1.373
Ubiquitin conjugating enzyme (RAD 6 homologue) expression (treatment/control) (24 h, dose 200, listed as BRB): 1.182 and 0.8017 and 1.22
Uncoupling protein 2 expression (treatment/control) (24 h, dose 200, listed as BRB): 0.9873 and 1.103
c-H-ras expression (treatment/control) (24 h, dose 200, listed as BRB): 1.3
c-jun expression (treatment/control) (24 h, dose 200, listed as BRB): 1.819 and 1.494 and 2.242
p53 expression (treatment/control) (24 h, dose 200, listed as BRB): 1.448 and 1.7
{Ribosomal protein L6} expression (treatment/control) (24 h, dose 200, listed as BRB): 2.964 and 2.141 and 2.538
14-3-3 zeta expression (treatment/control) (24 h, dose 800, listed as BRB): 1.787 and 1.416 and 1.415
17-beta hydroxysteroid dehydrogenase, type 2 expression (treatment/control) (24 h, dose 800, listed as BRB): 0.2858 and 0.3548 and 0.3188
Cathepsin L, sequence 2 expression (treatment/control) (24 h, dose 800, listed as BRB): 3.444 and 2.804 and 1.941
Dynamin-1 (D100) expression (treatment/control) (24 h, dose 800, listed as BRB): 0.7266 and 0.7238 and 0.7854
Gadd45 expression (treatment/control) (24 h, dose 800, listed as BRB): 3.152 and 4.261 and 2.965
Gamma-actin, cytoplasmic expression (treatment/control) (24 h, dose 800, listed as BRB): 4.159 and 3.751 and 3.387
Insulin-like growth factor binding protein 1 expression (treatment/control) (24 h, dose 800, listed as BRB): 2.338 and 2.353 and 1.62
L-gulono-gamma-lactone oxidase expression (treatment/control) (24 h, dose 800, listed as BRB): 0.3036 and 0.326 and 0.3525
Matrin F/G expression (treatment/control) (24 h, dose 800, listed as BRB): 0.4315 and 0.4295 and 0.6079
Ornithine decarboxylase expression (treatment/control) (24 h, dose 800, listed as BRB): 2.92 and 2.902 and 2.002
PAR interacting protein expression (treatment/control) (24 h, dose 800, listed as BRB): 3.554 and 2.34
Phase-1 RCT-33 expression (treatment/control) (24 h, dose 800, listed as BRB): 0.6976 and 0.5633 and 0.5757
Phase-1 RCT-36 expression (treatment/control) (24 h, dose 800, listed as BRB): 0.7359 and 0.7782
Phase-1 RCT-38 expression (treatment/control) (24 h, dose 800, listed as BRB): 0.4296 and 0.4024 and 0.4536
Phase-1 RCT-39 expression (treatment/control) (24 h, dose 800, listed as BRB): 1.555 and 1.399
Phase-1 RCT-40 expression (treatment/control) (24 h, dose 800, listed as BRB): 0.4257 and 0.4952 and 0.445
Phase-1 RCT-48 expression (treatment/control) (24 h, dose 800, listed as BRB): 0.6158 and 0.633
Phase-1 RCT-49 expression (treatment/control) (24 h, dose 800, listed as BRB): 2.478 and 2.062 and 1.658
Phase-1 RCT-50 expression (treatment/control) (24 h, dose 800, listed as BRB): 2.438 and 2.537 and 1.76
Phase-1 RCT-68 expression (treatment/control) (24 h, dose 800, listed as BRB): 2.05 and 1.892 and 1.519
Phase-1 RCT-78 expression (treatment/control) (24 h, dose 800, listed as BRB): 0.5752 and 0.6922 and 0.6621
Phase-1 RCT-83 expression (treatment/control) (24 h, dose 800, listed as BRB): 0.6019 and 0.6858 and 0.5634
Phase-1 RCT-89 expression (treatment/control) (24 h, dose 800, listed as BRB): 0.4544 and 0.462 and 0.4723
Phase-1 RCT-92 expression (treatment/control) (24 h, dose 800, listed as BRB): 0.4761 and 0.6497 and 0.7002
Phase-1 RCT-128 expression (treatment/control) (24 h, dose 800, listed as BRB): 0.5684 and 0.564 and 0.6
Phase-1 RCT-144 expression (treatment/control) (24 h, dose 800, listed as BRB): 3.092 and 2.983 and 2.106
Phase-1 RCT-145 expression (treatment/control) (24 h, dose 800, listed as BRB): 2.75 and 1.96 and 1.846
Phase-1 RCT-180 expression (treatment/control) (24 h, dose 800, listed as BRB): 1.726
Phase-1 RCT-182 expression (treatment/control) (24 h, dose 800, listed as BRB): 0.5041 and 0.56 and 0.6572
Phase-1 RCT-207 expression (treatment/control) (24 h, dose 800, listed as BRB): 3.826 and 2.754 and 2.464
Phase-1 RCT-213 expression (treatment/control) (24 h, dose 800, listed as BRB): 2.021 and 2.316 and 1.605
Phase-1 RCT-256 expression (treatment/control) (24 h, dose 800, listed as BRB): 0.3752 and 0.4196 and 0.4307
Phase-1 RCT-258 expression (treatment/control) (24 h, dose 800, listed as BRB): 1.65
Phase-1 RCT-264 expression (treatment/control) (24 h, dose 800, listed as BRB): 0.3546 and 0.4999 and 0.3553
Phase-1 RCT-271 expression (treatment/control) (24 h, dose 800, listed as BRB): 0.5889 and 0.6221
Phase-1 RCT-288 expression (treatment/control) (24 h, dose 800, listed as BRB): 0.3511 and 0.3915 and 0.4038
Phase-1 RCT-291 expression (treatment/control) (24 h, dose 800, listed as BRB): 0.6663 and 0.746 and 0.732
Phase-1 RCT-295 expression (treatment/control) (24 h, dose 800, listed as BRB): 1.75 and 2.065 and 1.52
Phase-1 RCT-296 expression (treatment/control) (24 h, dose 800, listed as BRB): 0.3839 and 0.27 and 0.2605
Ribosomal protein S17 expression (treatment/control) (24 h, dose 800, listed as BRB): 2.61 and 2.612 and 1.969
Senescence marker protein-30 expression (treatment/control) (24 h, dose 800, listed as BRB): 0.1397 and 0.1646 and 0.1474
Zinc finger protein expression (treatment/control) (24 h, dose 800, listed as BRB): 3.935 and 2.153 and 2.076
Paraoxonase 1 expression (treatment/control) (rat, in vivo): 0.8235 and 0.866 and 0.513
